For 24 molecules, Ki and remaining activity results are on record in patent US10053463B2 (Janssen Pharmaceutica NV, priority 2013, dated 2018).

The target in experiment [1] is T1, P2X7 (Homo sapiens (Human), UniProt Q99572). Kind of experiment: Radioligand binding, human P2X7-1321N1 cell membranes, tracer tritiated A-804598. The note with it: Table 3 (additional runs). Here is the method:
P2X7 Antagonism in Recombinant Human P2X7 Cells or Recombinant Rat P2X7 Cells: (a) Ca^2+ Flux and (b) Radioligand Binding
(b) Radioligand Binding: human or rat P2X7-1321N1 cells were collected and frozen @−80° C. On the day of the experiment, cell membrane preparations were made according to standard published methods. The total assay volume was 100 μl:10 μl compound (10×)+(b) 40 μl tracer (2.5×)+50 μl membrane (2×). The tracer used for the assay was tritiated A-804598. The compound can be prepared as described in the literature. (Donnelly-Roberts, D. Neuropharmacology 2008, 56 (1), 223-229.) Compounds, tracer and membranes were incubated for 1 hour @ 4° C. The assay was terminated by filtration (GF/B filters pre-soaked with 0.3% PEI) and washed with washing buffer (Tris-HCl 50 mM). The IC50 generated in the binding assay was corrected for tracer concentration and affinity of the tracer to derive at the affinity (K) of the test compounds. […] Data are analyzed and graphed on Graphpad Prism 5. For analysis, each concentration point is averaged from triplicate values and the averaged values are plotted on Graphpad Prism.

Experiment [2] deals with T1, P2X7. Nature of the experiment: P2X7 antagonism in human peripheral blood mononuclear cells (PBMCs), IL-1β release. It is filed as cell-based. The note with it: P2X7; Table 3 (additional runs); 10 μM compound; read-out: PBMC 10 μM (% control). The procedure, abridged:
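Ficoll-isolated human PBMCs primed with LPS (30 ng/ml) for 1 h, treated with compound for 30 min, then stimulated with 0.5 mM Bz-ATP for 1.5 h. Supernatant IL-1β measured by ELISA as % of LPS+Bz-ATP minus LPS-only release; IC50 from concentration–response of triplicate means.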

T1 sequence (Q99572 whole entry): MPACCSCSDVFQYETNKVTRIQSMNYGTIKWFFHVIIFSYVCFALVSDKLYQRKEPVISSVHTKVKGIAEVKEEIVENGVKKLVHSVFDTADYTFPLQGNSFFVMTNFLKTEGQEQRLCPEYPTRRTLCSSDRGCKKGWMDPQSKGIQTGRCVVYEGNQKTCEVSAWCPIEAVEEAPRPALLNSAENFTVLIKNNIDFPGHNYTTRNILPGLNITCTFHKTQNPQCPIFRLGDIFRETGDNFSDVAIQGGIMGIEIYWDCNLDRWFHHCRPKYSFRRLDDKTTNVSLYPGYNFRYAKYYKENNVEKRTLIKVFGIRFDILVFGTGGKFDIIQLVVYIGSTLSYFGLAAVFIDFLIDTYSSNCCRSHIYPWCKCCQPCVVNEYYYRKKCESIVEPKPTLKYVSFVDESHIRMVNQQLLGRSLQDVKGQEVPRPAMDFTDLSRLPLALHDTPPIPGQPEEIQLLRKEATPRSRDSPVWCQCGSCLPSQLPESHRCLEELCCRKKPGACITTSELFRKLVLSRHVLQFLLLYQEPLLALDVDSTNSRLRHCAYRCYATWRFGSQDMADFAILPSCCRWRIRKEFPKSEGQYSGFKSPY

Consider `C[C@H]1Cn2c(-c3cnccn3)nnc2-c2nnc(-c3cccc(C(F)(F)F)c3Cl)n21` [Example 99, (5S)-3-[2-Chloro-3-(trifluoromethyl)phenyl]-5-methyl-8-pyrazin-2-yl-5,6-dihydrobis[1,2,4]triazolo[4,3-a:3′,4′-c]pyrazine], for which, at P2X7 [1], the affinity corresponds to a Ki of 7.9 nM. For the same molecule, the remaining activity at 10 µM on P2X7 [2] was 34.3%.

Regarding `C[C@H]1Cn2c(-c3cnccn3)nnc2-c2nnc(-c3cccc(Cl)c3Cl)n21` [Example 100, (5S)-3-(2,3-Dichlorophenyl)-5-methyl-8-pyrazin-2-yl-5,6-dihydrobis[1,2,4]triazolo[4,3-a:3′,4′-c]pyrazine], affinity on P2X7 [1] was put at a Ki of 20 nM. Further, the remaining activity at 10 µM at P2X7 [2] is 17.2%.

As to `C[C@H]1Cn2c(-c3ccc(F)cc3)nnc2-c2nnc(-c3cccc(C(F)(F)F)c3Cl)n21` [Example 101, (5S)-3-[2-Chloro-3-(trifluoromethyl)phenyl]-8-(4-fluorophenyl)-5-methyl-5,6-dihydrobis[1,2,4]triazolo[4,3-a:3′,4′-c]pyrazine], at P2X7 [1], the affinity corresponds to a Ki of 39.8 nM. Also, the remaining activity at 10 µM on P2X7 [2] was determined as 1.2%.

For `C[C@H]1Cn2c(-c3cc[nH]n3)nnc2-c2nnc(-c3cccc(C(F)(F)F)c3Cl)n21` [Example 103, (5S)-3-[2-Chloro-3-(trifluoromethyl)phenyl]-5-methyl-8-(1H-pyrazol-3-yl)-5,6-dihydrobis[1,2,4]triazolo[4,3-a:3′,4′-c]pyrazine], at P2X7 [1], the Ki is 22.4 nM. The remaining activity at 10 µM at P2X7 [2] came to 3.3%.

In turn, `C[C@H]1Cn2c(-c3ncccn3)nnc2-c2nnc(-c3cccc(C(F)(F)F)c3Cl)n21` [Example 105, (5S)-3-[2-Chloro-3-(trifluoromethyl)phenyl]-5-methyl-8-pyrimidin-2-yl-5,6-dihydrobis[1,2,4]triazolo[4,3-a:3′,4′-c]pyrazine] returned a Ki on P2X7 [1] of 4 nM. At P2X7 [2], the remaining activity at 10 µM was 0.2%.

For `C[C@H]1Cn2c(-c3nccs3)nnc2-c2nnc(-c3cccc(C(F)(F)F)c3Cl)n21` [Example 106, (5S)-3-[2-Chloro-3-(trifluoromethyl)phenyl]-5-methyl-8-(1,3-thiazol-2-yl)-5,6-dihydrobis[1,2,4]triazolo[4,3-a:3′,4′-c]pyrazine], the affinity on P2X7 [1] corresponds to a Ki of 12.6 nM. Moreover, at P2X7 [2], the remaining activity at 10 µM is 1.9%.

Molecule `Cc1ncsc1-c1nnc2n1C[C@H](C)n1c(-c3cccc(C(F)(F)F)c3Cl)nnc1-2` [Example 109, (5S)-3-[2-Chloro-3-(trifluoromethyl)phenyl]-5-methyl-8-(4-methyl-1,3-thiazol-5-yl)-5,6-dihydrobis[1,2,4]triazolo[4,3-a:3′,4′-c]pyrazine] gave a Ki on P2X7 [1] of 63.1 nM. Moreover, the remaining activity at 10 µM on P2X7 [2] was -1.2%.

Take `Cc1cnc(-c2nnc3n2C[C@H](C)n2c(-c4cccc(C(F)(F)F)c4Cl)nnc2-3)cn1` [Example 110, (5S)-3-[2-Chloro-3-(trifluoromethyl)phenyl]-5-methyl-8-(5-methylpyrazin-2-yl)-5,6-dihydrobis[1,2,4]triazolo[4,3-a:3′,4′-c]pyrazine]: at P2X7 [1], the affinity, expressed as Ki, was 63.1 nM. Further, at P2X7 [2], the remaining activity at 10 µM is -1.4%.

`C[C@H]1Cn2c(-c3ccncn3)nnc2-c2nnc(-c3cccc(C(F)(F)F)c3Cl)n21` [Example 111, (5S)-3-[2-Chloro-3-(trifluoromethyl)phenyl]-5-methyl-8-pyrimidin-4-yl-5,6-dihydrobis[1,2,4]triazolo[4,3-a:3′,4′-c]pyrazine]: the Ki on P2X7 [1] stood at 10 nM. On P2X7 [2], the remaining activity at 10 µM was 6.1%.

As to `C[C@H]1Cn2c(-c3cn[nH]c3)nnc2-c2nnc(-c3cccc(C(F)(F)F)c3Cl)n21` [Example 112, (5S)-3-[2-Chloro-3-(trifluoromethyl)phenyl]-5-methyl-8-(1H-pyrazol-4-yl)-5,6-dihydrobis[1,2,4]triazolo[4,3-a:3′,4′-c]pyrazine], the affinity at P2X7 [1] corresponds to a Ki of 126 nM. Besides, the remaining activity at 10 µM at P2X7 [2] turned out to be 6.7%.

Molecule `COc1ccnc(-c2nnc3n2C[C@H](C)n2c(-c4cccc(C(F)(F)F)c4Cl)nnc2-3)c1` [Example 113, (5S)-3-[2-Chloro-3-(trifluoromethyl)phenyl]-8-(4-methoxypyridin-2-yl)-5-methyl-5,6-dihydrobis[1,2,4]triazolo[4,3-a:3′,4′-c]pyrazine] registered a Ki at P2X7 [1] of 8.7 nM. For the same molecule, the remaining activity at 10 µM at P2X7 [2] is 5.8%.

Turning to `C[C@H]1Cn2c(-c3cnn(C)c3)nnc2-c2nnc(-c3cccc(C(F)(F)F)c3Cl)n21` [Example 114, (5S)-3-[2-Chloro-3-(trifluoromethyl)phenyl]-5-methyl-8-(1-methyl-1H-pyrazol-4-yl)-5,6-dihydrobis[1,2,4]triazolo[4,3-a:3′,4′-c]pyrazine], on P2X7 [2], the remaining activity at 10 µM turned out to be 4.4%.

In turn, `C[C@H]1Cn2c(-c3cnco3)nnc2-c2nnc(-c3cccc(C(F)(F)F)c3Cl)n21` [Example 115, (5S)-3-[2-Chloro-3-(trifluoromethyl)phenyl]-5-methyl-8-(1,3-oxazol-5-yl)-5,6-dihydrobis[1,2,4]triazolo[4,3-a:3′,4′-c]pyrazine] displayed a Ki at P2X7 [1] of 43.7 nM. The remaining activity at 10 µM at P2X7 [2] was 2.1%.

Regarding `CCc1nnc2n1C[C@H](C)n1c(-c3cccc(C(F)(F)F)c3Cl)nnc1-2` [Example 116, (S)-3-[2-chloro-3-(trifluoromethyl)phenyl]-8-ethyl-5-methyl-5,6-dihydrobis[1,2,4]triazolo[4,3-a:3′,4′-c]pyrazine], on P2X7 [2], the remaining activity at 10 µM was 6.2%.

For `C[C@H]1Cn2c(-c3cccc(C(F)(F)F)n3)nnc2-c2nnc(-c3cccc(C(F)(F)F)c3Cl)n21` [Example 117, (S)-3-[2-chloro-3-(trifluoromethyl)phenyl]-5-methyl-8-(6-(trifluoromethyl)pyridine-2-yl)-5,6-dihydrobis[1,2,4]triazolo[4,3-a:3′,4′-c]pyrazine], the remaining activity at 10 µM at P2X7 [2] is 25.9%.

As to `C[C@H]1Cn2c(-c3nccc(C(F)(F)F)n3)nnc2-c2nnc(-c3cccc(C(F)(F)F)c3Cl)n21` [Example 118, (S)-3-[2-chloro-3-(trifluoromethyl)phenyl]-5-methyl-8-(4-(trifluoromethyl)pyrimidin-2-yl)-5,6-dihydrobis[1,2,4]triazolo[4,3-a:3′,4′-c]pyrazine], on P2X7 [1], the Ki was 63.1 nM. On P2X7 [2], the remaining activity at 10 µM was 9.9%.

As to `C[C@H]1Cn2c(-c3cc(C(F)(F)F)ccn3)nnc2-c2nnc(-c3cccc(C(F)(F)F)c3Cl)n21` [Example 119, (S)-3-[2-chloro-3-(trifluoromethyl)phenyl]-5-methyl-8-(4-(trifluoromethyl)pyridin-2-yl)-5,6-dihydrobis[1,2,4]triazolo[4,3-a:3′,4′-c]pyrazine], on P2X7 [1], the affinity corresponds to a Ki of 14.1 nM. The remaining activity at 10 µM at P2X7 [2] worked out at 15%.

The molecule `C[C@H]1Cn2c(-c3ccc(Cl)cn3)nnc2-c2nnc(-c3cccc(C(F)(F)F)c3Cl)n21` [Example 120, (S)-3-[2-chloro-3-(trifluoromethyl)phenyl]-5-methyl-8-(5-chloropyridin-2-yl)-5,6-dihydrobis[1,2,4]triazolo[4,3-a:3′,4′-c]pyrazine] registered a Ki at P2X7 [1] of 25.1 nM. The remaining activity at 10 µM on P2X7 [2] came to 7%.

`Cc1ccc(-c2nnc3n2C[C@H](C)n2c(-c4cccc(C(F)(F)F)c4Cl)nnc2-3)s1` [Example 121, (S)-3-[2-chloro-3-(trifluoromethyl)phenyl]-5-methyl-8-(5-methylthiophen-2-yl)-5,6-dihydrobis[1,2,4]triazolo[4,3-a:3′,4′-c]pyrazine] gave a Ki on P2X7 [1] of 15.8 nM. Further, on P2X7 [2], the remaining activity at 10 µM worked out at 9.3%.

`C[C@H]1Cn2c(-c3cccnc3)nnc2-c2nnc(-c3cccc(C(F)(F)F)c3Cl)n21` [Example 122, (S)-3-[2-chloro-3-(trifluoromethyl)phenyl]-5-methyl-8-(pyridin-3-yl)-5,6-dihydrobis[1,2,4]triazolo[4,3-a:3′,4′-c]pyrazine]: the remaining activity at 10 µM at P2X7 [2] was 9.5%.

Regarding `Cc1cncc(-c2nnc3n2C[C@H](C)n2c(-c4cccc(C(F)(F)F)c4Cl)nnc2-3)c1` [Example 123, (S)-3-(2-chloro-3-(trifluoromethyl)phenyl)-5-methyl-8-(5-methylpyridin-3-yl)-5,6-dihydrobis([1,2,4]triazolo)[4,3-a:3′,4′-c]pyrazine], on P2X7 [2], the remaining activity at 10 µM turned out to be 2.4%.

On P2X7 [1], `C[C@H]1Cn2c(-c3ccccn3)nnc2-c2nnc(-c3cccc(C(F)(F)F)c3Cl)n21` [Example 124, (S)-3-(2-chloro-3-(trifluoromethyl)phenyl)-5-methyl-8-(pyridin-2-yl)-5,6-dihydrobis([1,2,4]triazolo)[4,3-a:3′,4′-c]pyrazine] came in with a Ki of 3.6 nM. The remaining activity at 10 µM at P2X7 [2] is -4.2%.

In the case of `Cc1ccnc(-c2nnc3n2C[C@H](C)n2c(-c4cccc(C(F)(F)F)c4Cl)nnc2-3)c1` [Example 125, (S)-3-(2-chloro-3-(trifluoromethyl)phenyl)-5-methyl-8-(4-methylpyridin-2-yl)-5,6-dihydrobis([1,2,4]triazolo)[4,3-a:3′,4′-c]pyrazine], the affinity on P2X7 [1], expressed as Ki, was 10.5 nM. In addition, the remaining activity at 10 µM at P2X7 [2] amounted to 28.5%.

Consider `C[C@H]1Cn2c(-c3ccc(F)cn3)nnc2-c2nnc(-c3cccc(Cl)c3Cl)n21` [Example 126, (S)-3-(2,3-dichlorophenyl)-8-(5-fluoropyridin-2-yl)-5-methyl-5,6-dihydrobis([1,2,4]triazolo)[4,3-a:3′,4′-c]pyrazine], for which, at P2X7 [1], the Ki was 12.6 nM. Also, the remaining activity at 10 µM on P2X7 [2] is -0.5%.
